In patent US20240383852A1, “ANTI-VIRAL COMPOUNDS” (INFEX Therapeutics Limited, priority 2021, published 2024):

Experiments:
[1] = test system: human Hep G2 cells (ATCC HB-8065); test: Cytotoxicity in Hep G2 cells (CellTiter-Glo); type: cell-based; details: Hep G2 cells, 100 μM test article, 24-hour exposure
SARS-CoV-2 PLpro = target: T1, SARS-CoV-2 PLpro (Severe acute respiratory syndrome coronavirus 2, UniProt P0DTD1); test: biochemical; details: 60 nM papain-like protease, 50 μM Z-RLRGG-AMC, pH 7.5, 37° C.; read-out: SARS-CoV-2 PLpro IC50
T1 construct: containing 60 nM papain-like protease

For `COc1cc(Br)cc([C@@H](C)NC(=O)c2cc(N3CC4CN(C)CC4C3)ccc2C)c1` (stereo partly drawn) [Example 199, N-[(1R)-1-(3-Bromo-5-methoxy-phenyl)ethyl]-2-methyl-5-(2-methyl-1,3,3a,4,6,6a-hexahydropyrrolo[3,4-c]pyrrol-5-yl)benzamide], the “% Cell Viability” value [1] was 0.7% and the IC50 (SARS-CoV-2 PLpro) was < 2000 nM.
With `COc1cc(Br)cc([C@@H](C)NC(=O)c2cc(N3CCN4CCCC4C3)ccc2C)c1` (stereo partly drawn) [Example 200, 5-(3,4,6,7,8,8a-Hexahydro-1H-pyrrolo[1,2a]pyrazin-2-yl)-N-[(1R)-1-(3-bromo-5-methoxy-phenyl)ethyl]-2-methyl-benzamide] the “% Cell Viability” value [1] was 24.3% and the IC50 (SARS-CoV-2 PLpro) was < 2000 nM.
In the case of `Cc1ccc(N2CCN(C)CC2)cc1C(=O)N[C@H](C)c1ccc(Cl)c(Br)c1` [Example 201, N-[(1R)-1-(3-Bromo-4-chloro-phenyl)ethyl]-2-methyl-5-(4-methylpiperazin-1-yl)benzamide], the “% Cell Viability” value [1] is reported as 1.0% and the IC50 (SARS-CoV-2 PLpro) is reported as < 2000 nM.
In the case of `COc1cc(OC)c([C@@H](C)NC(=O)c2cc(N3CCN(C)CC3)ccc2C)cc1Br` [Example 202, N-[(1R)-1-(5-Bromo-2,4-dimethoxy-phenyl)ethyl]-2-methyl-5-(4-methylpiperazin-1-yl)benzamide], the “% Cell Viability” value [1] is reported as 72.5% and the IC50 (SARS-CoV-2 PLpro) is reported as < 5000 nM.
In the case of `COc1ccc([C@@H](C)NC(=O)c2cc(N3CCN(C)CC3)ccc2C)cc1-c1ccccc1` [Example 203, N-[(1R)-1-(4-Methoxy-3-phenyl-phenyl)ethyl]-2-methyl-5-(4-methylpiperazin-1-yl)benzamide], the “% Cell Viability” value [1] is reported as 0.9% and the IC50 (SARS-CoV-2 PLpro) is reported as < 2000 nM.
With `COc1ccc([C@@H](C)NC(=O)c2cc(N3CCN(C)CC3)ccc2C)cc1-c1cccc(C(C)(C)O)c1` [Example 204, N-[(1R)-1-[3-[3-(1-Hydroxy-1-methyl-ethyl)phenyl]-4-methoxy-phenyl]ethyl]-2-methyl-5-(4-methylpiperazin-1-yl)benzamide] the “% Cell Viability” value [1] was 81.4% and the IC50 (SARS-CoV-2 PLpro) was < 2000 nM.
In the case of `COc1ccc([C@@H](C)NC(=O)c2cc(N3CCN(C)CC3)ccc2C)cc1-c1ccsc1` [Example 206, N-[(1R)-1-[4-Methoxy-3-(3-thienyl)phenyl]ethyl]-2-methyl-5-(4-methylpiperazin-1-yl)benzamide], the “% Cell Viability” value [1] is reported as 0.8% and the IC50 (SARS-CoV-2 PLpro) is reported as < 2000 nM.
For `COc1ccc([C@@H](C)NC(=O)c2cc(N3CCN(C)CC3)ccc2C)cc1-c1ccn(C)n1` [Example 207, N-[(1R)-1-[4-Methoxy-3-(1-methylpyrazol-3-yl)phenyl]ethyl]-2-methyl-5-(4-methylpiperazin-1-yl)benzamide], the “% Cell Viability” value [1] was 103.7% and the IC50 (SARS-CoV-2 PLpro) was < 2000 nM.
In the case of `COc1ccc([C@@H](C)NC(=O)c2cc(N3CCN(C)CC3)ccc2C)cc1-c1cnn(C(F)F)c1` [Example 208, N-[(1R)-1-[3-[1-(Difluoromethyl)pyrazol-4-yl]-4-methoxy-phenyl]ethyl]-2-methyl-5-(4-methylpiperazin-1-yl)benzamide], the “% Cell Viability” value [1] is reported as 87.8% and the IC50 (SARS-CoV-2 PLpro) is reported as < 2000 nM.
In the case of `COc1ccc([C@@H](C)NC(=O)c2cc(N3CCN(C)CC3)ccc2C)cc1-c1ccc(=O)n(C)c1` [Example 210, N-[(1R)-1-[4-Methoxy-3-(1-methyl-6-oxo-3-pyridyl)phenyl]ethyl]-2-methyl-5-(4-methylpiperazin-1-yl)benzamide], the “% Cell Viability” value [1] is reported as 64.0% and the IC50 (SARS-CoV-2 PLpro) is reported as < 5000 nM.
For `COc1ccc([C@@H](C)NC(=O)c2cc(N3CCN(C)CC3)ccc2C)cc1-c1ccncc1` [Example 211, N-[(1R)-1-[4-Methoxy-3-(4-pyridyl)phenyl]ethyl]-2-methyl-5-(4-methylpiperazin-1-yl)benzamide], the “% Cell Viability” value [1] was 86.0% and the IC50 (SARS-CoV-2 PLpro) was < 2000 nM.
`CCn1cc(-c2cc([C@@H](C)NC(=O)c3cc(N4CCN(C)CC4)ccc3C)ccc2OC)cn1` [Example 213, N-[(1R)-1-[3-(1-Ethylpyrazol-4-yl)-4-methoxy-phenyl]ethyl]-2-methyl-5-(4-methylpiperazin-1-yl)benzamide] was tested, and the “% Cell Viability” value [1] was 67.2% and the IC50 (SARS-CoV-2 PLpro) was < 2000 nM.
